From US12077503B2, “Substituted cyclic amides and their use as herbicides” (FMC CORPORATION, priority 2015, dated 2024)
Read-outs that look alike come from different tables or passages of the source.

Experiments:
Assay type in all cases: in vivo
[1] = system: ryegrass, Italian (Italian ryegrass, Lolium multiflorum); assay: Test A preemergence; settings: Lolium multiflorum, pre-emergence, 240 h; for pest or weed control at 125 g/ha: 125 g ai/ha, Preemergence, visual injury rating after approximately 10 d, read-out: Ryegrass, Italian plant response rating (0 to 100 scale, 0 is no effect, 100 is complete control); for pest or weed control at 500 g/ha: 500 g ai/ha, preemergence, visual injury rating about 10 d after treatment, 0 to 100 scale (0 no effect, 100 complete control), read-out: Ryegrass, Italian plant response rating
Procedure, shortened: (§1)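 Visual injury scores from 0, no effect, to 100, complete control, were assigned versus untreated controls roughly 10 d after treatment in the greenhouse. Test chemicals, formulated with surfactant in a non-phytotoxic solvent, were applied to planted seeds as a preemergence soil spray or postemergence to one- to two-leaf plants 2 to 10 cm tall, in loam–sand soil.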

[2] = system: giant foxtail (Setaria faberii); assay: Test A preemergence; settings: Setaria faberi, pre-emergence, 240 h; for pest or weed control at 125 g/ha: 125 g ai/ha, Preemergence, visual injury rating after approximately 10 d, read-out: Foxtail, Giant plant response rating (0 to 100 scale, 0 is no effect, 100 is complete control); for pest or weed control at 500 g/ha: 500 g ai/ha, preemergence, visual injury rating about 10 d after treatment, 0 to 100 scale (0 no effect, 100 complete control), read-out: Foxtail, Giant plant response rating
Procedure, shortened: as §1

[3] = system: barnyardgrass (Echinochloa crus-galli); assay: Test A preemergence; settings: Echinochloa crus-galli, pre-emergence, 240 h; for pest or weed control at 125 g/ha: 125 g ai/ha, Preemergence, visual injury rating after approximately 10 d, read-out: Barnyardgrass plant response rating (0 to 100 scale, 0 is no effect, 100 is complete control); for pest or weed control at 500 g/ha: 500 g ai/ha, preemergence, visual injury rating about 10 d after treatment, 0 to 100 scale (0 no effect, 100 complete control), read-out: Barnyardgrass plant response rating
Procedure, shortened: as §1

[4] = system: ragweed (common ragweed, Ambrosia elatior); assay: Test A preemergence; settings: Ambrosia artemisiifolia, pre-emergence, 240 h; for pest or weed control at 125 g/ha: 125 g ai/ha, Preemergence, visual injury rating after approximately 10 d, read-out: Ragweed plant response rating (0 to 100 scale, 0 is no effect, 100 is complete control); for pest or weed control at 500 g/ha: 500 g ai/ha, preemergence, visual injury rating about 10 d after treatment, 0 to 100 scale (0 no effect, 100 complete control), read-out: Ragweed plant response rating
Procedure, shortened: as §1

[5] = system: pigweed (Amaranthus retroflexus); assay: Test A preemergence; settings: Amaranthus retroflexus, pre-emergence, 240 h; for pest or weed control at 125 g/ha: 125 g ai/ha, Preemergence, visual injury rating after approximately 10 d, read-out: Pigweed plant response rating (0 to 100 scale, 0 is no effect, 100 is complete control); for pest or weed control at 500 g/ha: 500 g ai/ha, preemergence, visual injury rating about 10 d after treatment, 0 to 100 scale (0 no effect, 100 complete control), read-out: Pigweed plant response rating
Kochia (Kochia scoparia) [6] = assay: Test A preemergence; settings: Bassia scoparia, pre-emergence, 240 h; for pest or weed control at 125 g/ha: 125 g ai/ha, Preemergence, visual injury rating after approximately 10 d, read-out: Kochia plant response rating (0 to 100 scale, 0 is no effect, 100 is complete control); for pest or weed control at 500 g/ha: 500 g ai/ha, preemergence, visual injury rating about 10 d after treatment, 0 to 100 scale (0 no effect, 100 complete control), read-out: Kochia plant response rating
Procedure, shortened: as §1

[7] = system: ryegrass, Italian (Italian ryegrass, Lolium multiflorum); assay: Test A postemergence; settings: Lolium multiflorum, post-emergence, 240 h, 125 g ai/ha
Procedure, shortened: as §1

[8] = system: barnyardgrass (Echinochloa crus-galli); assay: Test A postemergence; settings: Echinochloa crus-galli, post-emergence, 240 h; for pest or weed control at 125 g/ha: 125 g ai/ha; for pest or weed control at 500 g/ha: 500 g ai/ha, visual injury, 0 to 100 scale (0 no effect, 100 complete control)
Procedure, shortened: as §1

[9] = system: blackgrass (Alopecurus myosuroides); assay: Test A postemergence; settings: Alopecurus myosuroides, post-emergence, 240 h; for pest or weed control at 125 g/ha: 125 g ai/ha; for pest or weed control at 500 g/ha: 500 g ai/ha, visual injury, 0 to 100 scale (0 no effect, 100 complete control)
Procedure, shortened: as §1

[10] = system: wheat (Triticum aestivum); assay: Test A postemergence; settings: Triticum aestivum, post-emergence, 240 h, 125 g ai/ha
Procedure, shortened: as §1

[11] = system: ragweed (common ragweed, Ambrosia elatior); assay: Test A postemergence; settings: Ambrosia artemisiifolia, post-emergence, 240 h, 125 g ai/ha
Procedure, shortened: as §1

[12] = system: Galium (catchweed bedstraw, Galium aparine); assay: Test A postemergence; settings: Galium, post-emergence, 240 h; for pest or weed control at 125 g/ha: 125 g ai/ha; for pest or weed control at 500 g/ha: 500 g ai/ha, visual injury, 0 to 100 scale (0 no effect, 100 complete control)
Procedure, shortened: as §1

corn (Zea mays) = assay: Test A postemergence; settings: Zea mays, post-emergence, 240 h; for plant injury at 125 g/ha / Corn plant response rating (crop injury, 0 = no effect, 100 = complete kill) at 500 g/ha: postemergence, approx. 10 d; for plant injury at 125 g/ha: visual injury on 0 to 100 scale (0 no effect, 100 complete control), read-out: Corn plant response rating; for Corn plant response rating (crop injury, 0 = no effect, 100 = complete kill) at 500 g/ha: 500 g ai/ha, visual injury, 0 to 100 scale (0 no effect, 100 complete control)
Procedure, shortened: as §1

[13] = system: pigweed (Amaranthus retroflexus); assay: Test A postemergence; settings: Amaranthus retroflexus, post-emergence, 240 h, 125 g ai/ha
Procedure, shortened: as §1

Kochia (Kochia scoparia) [14] = assay: Test A postemergence; settings: Bassia scoparia, post-emergence, 240 h; for pest or weed control at 125 g/ha: 125 g ai/ha; for pest or weed control at 500 g/ha: 500 g ai/ha, visual injury, 0 to 100 scale (0 no effect, 100 complete control)
Procedure, shortened: as §1

[15] = postemergence, visual injury on 0 to 100 scale (0 no effect, 100 complete control), approx. 10 d, read-out: Ryegrass, Italian plant response rating
[16] = postemergence, visual injury on 0 to 100 scale (0 no effect, 100 complete control), approx. 10 d, read-out: Barnyardgrass plant response rating
[17] = postemergence, approx. 10 d, read-out: Plant response rating, Barnyardgrass
[18] = postemergence, visual injury on 0 to 100 scale (0 no effect, 100 complete control), approx. 10 d, read-out: Blackgrass plant response rating
[19] = postemergence, approx. 10 d, read-out: Plant response rating, Blackgrass
[20] = postemergence, visual injury on 0 to 100 scale (0 no effect, 100 complete control), approx. 10 d, read-out: Wheat plant response rating
[21] = postemergence, visual injury on 0 to 100 scale (0 no effect, 100 complete control), approx. 10 d, read-out: Ragweed plant response rating
[22] = postemergence, visual injury on 0 to 100 scale (0 no effect, 100 complete control), approx. 10 d, read-out: Galium plant response rating
[23] = postemergence, approx. 10 d, read-out: Plant response rating, Galium
[24] = postemergence, visual injury on 0 to 100 scale (0 no effect, 100 complete control), approx. 10 d, read-out: Pigweed plant response rating
[25] = postemergence, visual injury on 0 to 100 scale (0 no effect, 100 complete control), approx. 10 d, read-out: Kochia plant response rating
[26] = postemergence, approx. 10 d, read-out: Plant response rating, Kochia

Compound: Cc1ccc([C@H]2CNC(=S)[C@@H]2C(=O)Nc2cccc(F)c2F)cc1 (racemic) [Compound 946]
- pest or weed control at 125 g/ha [1]: 0%
- pest or weed control at 500 g/ha [1]: 0%
- pest or weed control at 125 g/ha [2]: 0%
- pest or weed control at 500 g/ha [2]: 20%
- pest or weed control at 125 g/ha [3]: 60%
- pest or weed control at 500 g/ha [3]: 80%
- pest or weed control at 125 g/ha [4]: 0%
- pest or weed control at 500 g/ha [4]: 0%
- pest or weed control at 125 g/ha [5]: 0%
- pest or weed control at 500 g/ha [5]: 0%
- pest or weed control at 125 g/ha (Kochia (Kochia scoparia) [6]): 0%
- pest or weed control at 500 g/ha (Kochia (Kochia scoparia) [6]): 50%
- pest or weed control at 125 g/ha ([7]; Postemergence, visual injury after approximately 10 d, 0 to 100 scale where 0 is no effect and 100 is complete control, read-out: Plant response rating, Ryegrass, Italian): 0%
- pest or weed control at 125 g/ha ([8]; Postemergence, visual injury after approximately 10 d, 0 to 100 scale where 0 is no effect and 100 is complete control, read-out: Plant response rating, Barnyardgrass): 60%
- pest or weed control at 125 g/ha ([9]; Postemergence, visual injury after approximately 10 d, 0 to 100 scale where 0 is no effect and 100 is complete control, read-out: Plant response rating, Blackgrass): 0%
- plant injury at 125 g/ha ([10]; Postemergence, visual injury after approximately 10 d, 0 to 100 scale where 0 is no effect and 100 is complete control, read-out: Plant response rating, Wheat): 0%
- pest or weed control at 125 g/ha ([11]; Postemergence, visual injury after approximately 10 d, 0 to 100 scale where 0 is no effect and 100 is complete control, read-out: Plant response rating, Ragweed): 0%
- pest or weed control at 125 g/ha ([12]; Postemergence, visual injury after approximately 10 d, 0 to 100 scale where 0 is no effect and 100 is complete control, read-out: Plant response rating, Galium): 0%
- Corn plant response rating (crop injury, 0 = no effect, 100 = complete kill) at 125 g/ha (corn (Zea mays); 125 g ai/ha, Postemergence, visual injury after approximately 10 d, 0 to 100 scale where 0 is no effect and 100 is complete control): 0%
- pest or weed control at 125 g/ha ([13]; Postemergence, visual injury after approximately 10 d, 0 to 100 scale where 0 is no effect and 100 is complete control, read-out: Plant response rating, Pigweed): 0%
- pest or weed control at 125 g/ha (Kochia (Kochia scoparia) [14]; Postemergence, visual injury after approximately 10 d, 0 to 100 scale where 0 is no effect and 100 is complete control, read-out: Plant response rating, Kochia): 0%

Compound: O=C(Nc1cccc(F)c1F)[C@H]1C(=S)NC[C@@H]1c1ccc(C(F)(F)F)cc1 (racemic) [Compound 1048]
- pest or weed control at 125 g/ha [1]: 20%
- pest or weed control at 500 g/ha [1]: 40%
- pest or weed control at 125 g/ha [2]: 90%
- pest or weed control at 500 g/ha [2]: 90%
- pest or weed control at 125 g/ha [3]: 90%
- pest or weed control at 500 g/ha [3]: 90%
- pest or weed control at 125 g/ha [4]: 50%
- pest or weed control at 500 g/ha [4]: 80%
- pest or weed control at 125 g/ha [5]: 80%
- pest or weed control at 500 g/ha [5]: 90%
- pest or weed control at 125 g/ha (Kochia (Kochia scoparia) [6]): 90%
- pest or weed control at 500 g/ha (Kochia (Kochia scoparia) [6]): 90%
- pest or weed control at 125 g/ha [7, 15]: 30%
- pest or weed control at 125 g/ha [8, 16]: 50%
- pest or weed control at 500 g/ha [8, 17]: 80%
- pest or weed control at 125 g/ha [9, 18]: 20%
- pest or weed control at 500 g/ha [9, 19]: 30%
- plant injury at 125 g/ha [10, 20]: 20%
- pest or weed control at 125 g/ha [11, 21]: 0%
- pest or weed control at 125 g/ha [12, 22]: 0%
- pest or weed control at 500 g/ha [12, 23]: 60%
- plant injury at 125 g/ha (corn (Zea mays); 125 g ai/ha): 20%
- Corn plant response rating (crop injury, 0 = no effect, 100 = complete kill) at 500 g/ha (corn (Zea mays)): 40%
- pest or weed control at 125 g/ha [13, 24]: 30%
- pest or weed control at 125 g/ha (Kochia (Kochia scoparia) [14]; [25]): 30%
- pest or weed control at 500 g/ha (Kochia (Kochia scoparia) [14]; [26]): 60%

Compound: O=C(Nc1ccccc1C(F)(F)F)[C@H]1C(=S)NC[C@@H]1c1ccc(C(F)(F)F)cc1 (racemic) [Compound 1049]
- pest or weed control at 125 g/ha [1]: 0%
- pest or weed control at 500 g/ha [1]: 30%
- pest or weed control at 125 g/ha [2]: 80%
- pest or weed control at 500 g/ha [2]: 90%
- pest or weed control at 125 g/ha [3]: 30%
- pest or weed control at 500 g/ha [3]: 70%
- pest or weed control at 125 g/ha [4]: 20%
- pest or weed control at 500 g/ha [4]: 40%
- pest or weed control at 125 g/ha [5]: 0%
- pest or weed control at 500 g/ha [5]: 60%
- pest or weed control at 125 g/ha (Kochia (Kochia scoparia) [6]): 30%
- pest or weed control at 500 g/ha (Kochia (Kochia scoparia) [6]): 70%
- pest or weed control at 125 g/ha [7, 15]: 0%
- pest or weed control at 125 g/ha [8, 16]: 30%
- pest or weed control at 500 g/ha [8, 17]: 50%
- pest or weed control at 125 g/ha [9, 18]: 0%
- pest or weed control at 500 g/ha [9, 19]: 0%
- plant injury at 125 g/ha [10, 20]: 0%
- pest or weed control at 125 g/ha [11, 21]: 0%
- pest or weed control at 125 g/ha [12, 22]: 0%
- pest or weed control at 500 g/ha [12, 23]: 40%
- plant injury at 125 g/ha (corn (Zea mays); 125 g ai/ha): 0%
- Corn plant response rating (crop injury, 0 = no effect, 100 = complete kill) at 500 g/ha (corn (Zea mays)): 0%
- pest or weed control at 125 g/ha [13, 24]: 10%
- pest or weed control at 125 g/ha (Kochia (Kochia scoparia) [14]; [25]): 0%
- pest or weed control at 500 g/ha (Kochia (Kochia scoparia) [14]; [26]): 30%
